± gives the expanded uncertainty stated by the source. One block for each compound: values may come before it.
Key:
[1] = xn = mol fraction of the nth substance listed; conditions: 101 kPa, Liquid, Vibrating tube method
[2] = 298.15 K; 101.33 kPa; Liquid; Vibrating tube method
[3] = refractive index (Na D-line) (dimensionless); conditions: 298.15 K; 101.33 kPa; Liquid; Standard Abbe refractometry

- mass density ([1]; 283.15 K, x2 = 0.007): 1259.82 ± 0.99 kg/m3
- mass density ([1]; 298.15 K, x2 = 0.008): 1249.78 ± 1.1 kg/m3
SMILES: CCOS(=O)(=O)[O-].CC[n+]1ccccc1 [1-ethylpyridinium ethyl sulfate] + CCCCCC

- mass density ([1]; 283.15 K, x2 = 0.007): 1260.51 ± 0.99 kg/m3
- mass density ([1]; 298.15 K, x2 = 0.007): 1250.63 ± 0.98 kg/m3
SMILES: CCOS(=O)(=O)[O-].CC[n+]1ccccc1 [1-ethylpyridinium ethyl sulfate] + CCCCCCC

- mass density ([1]; 283.15 K, x2 = 0.335): 1198.57 ± 1.7 kg/m3
- mass density ([1]; 298.15 K, x2 = 0.406): 1171.69 ± 1.7 kg/m3
SMILES: CCOS(=O)(=O)[O-].CC[n+]1ccccc1 [1-ethylpyridinium ethyl sulfate] + c1ccccc1

- mass density [2]: 1252 ± 0.4 kg/m3
- refractive index [3]: 1.50525 ± 0.00037
SMILES: CCOS(=O)(=O)[O-].CC[n+]1ccccc1 [1-ethylpyridinium ethyl sulfate]
